# Conditions: buffer; pH 7.4; 200.0 µM
row,SMILES,solubility kinetic [µg/mL]
1,COc1ccc(Cl)cc1NC(=O)COC(=O)C1CC1,34.4
2,O=C(COc1ccc(S(=O)(=O)NC2CCCCC2)cc1)NC1CC1,> 52.9
3,COc1ccc(C(CC(=O)O)N2Cc3ccccc3C2=O)cc1 (stereo unspecified),> 46.7
4,COc1ccc(CNc2cccc(C)n2)c(O)c1,28
5,O=C(COC(=O)Cc1ccc(F)cc1)NC1CCCCC1,> 44
6,COc1ccccc1CCNC(=O)Cn1c(=O)oc2ccccc21,> 49
7,CN(CCOc1ccccc1)CC(O)COc1ccccc1 (stereo unspecified),28.5
8,NC(=O)c1ccc(NC(=O)COC(=O)C2COc3ccccc3O2)cc1 (stereo unspecified),> 53.5
9,N#CC1(Nc2cccc(Br)c2)C(=O)Nc2ccccc21 (stereo unspecified),> 49.2
10,CCC(Oc1ccccc1F)C(=O)NCCN1CCOCC1 (stereo unspecified),44.3
11,CNC(=S)NC1CC2CCCC(C1)N2Cc1ccccc1OC (stereo unspecified),> 50
12,C=CCn1c(O)c(C(CC)=Nc2cccc(C(=O)O)c2)c(=O)[nH]c1=O,> 51.5
13,O=C(c1ccccc1)c1ccc(-n2ccnc2)c([N+](=O)[O-])c1,34.4
14,Cc1ccc(C)c(NC(=O)COC(=O)Cc2ccsc2)c1,42.5
15,CCC(CO)NCc1ccccc1OC(C)C.Cl (stereo unspecified),> 41.1
16,NS(=O)(=O)c1ccc(CCNC(=O)c2ccc(-c3ccccc3)cc2)cc1,< 0.4
17,CC1CN(Cc2cnc(Cl)s2)CC(C)O1 (stereo unspecified),27.9
18,COc1ccc(OCCNC(=O)CCCO)cc1,4
19,Cc1ccc(CSCC(=O)NCc2cccs2)cc1,41.9
20,CN(CC(O)COc1ccc2ccccc2c1)C1CCCCC1.Cl (stereo unspecified),> 52.5
21,COc1ccc2cc(S(=O)(=O)NCc3cccnc3)ccc2c1,13.8
22,COc1ccc(CNC(=O)COC(=O)CCc2c[nH]c3ccccc23)cc1,44.4
23,Cc1nc(-c2cc(C#N)c(=O)[nH]c2C)cs1,> 34.7
24,COc1ccc2[nH]c(C(=O)Nc3ccccc3Cl)cc2c1,< 0.3
25,OCC(CO)(CO)NC(=S)Nc1cc(Cl)cc(Cl)c1,46.7

row,SMILES,solubility kinetic [µg/mL]
1,Cc1ccnc2nc(NC(=O)c3ccco3)nn12,> 36.5
2,O=C(NC(=S)Nc1ccc(Br)cn1)c1cccnc1,3
3,CC(C)(C)c1ccc(S(=O)(=O)N2CCNC(=O)C2)cc1,42
4,CCOP(=O)(c1ccc(N(C)C)cc1)C(O)c1ccc(C)cc1 (stereo unspecified),46
5,CC(C)Cn1c(-c2ccc(Br)cc2)c[nH]c1=S,5.7
6,Cc1ccc(S(C)(=O)=O)cc1C(=O)NC(C)C1CC2CCC1C2 (stereo unspecified),47.8
7,CCOP(=O)(OCC)/C(=N/OC(=O)c1cccc([N+](=O)[O-])c1)C(N)=O,55
8,CCc1ccc(C(=O)Nc2nc(C)cs2)s1,32.9
9,COc1ccc2cc(C(=O)NCc3ccccc3)c(=O)oc2c1,< 0.7
10,Cc1cc(C(=O)CCC(=O)N2CCN(c3ccccc3)CC2)c(C)s1,46.5
11,CC1CN(C(=S)NC(=O)c2ccc(Cl)cc2)CC(C)O1 (stereo unspecified),> 46.9
12,CCCN1CCC(NCC(C)c2ccccc2)CC1 (stereo unspecified),38.8
13,CC(C)(C)NC(=O)CSc1nc(-c2ccc(F)cc2)cs1,6.6
14,CC(NC(=O)CCC(=O)N1CCCCCC1)c1ccccc1 (stereo unspecified),> 45.4
15,CC1CCN(C(=O)COC(=O)c2ccc([N+](=O)[O-])o2)CC1,> 44.4
16,CN(CC(=O)Nc1ccc(F)c(F)c1F)C(=O)c1ccc(N2CCCC2=O)cc1,53.4
17,Cc1nc(N)ncc1C(=O)Nc1ccccc1,19
18,C(=C\c1ccccc1)/CSc1nc2ncccc2[nH]1,8.9
19,Cc1cccc(Nc2nc(N)nc(-c3oc4ccccc4c3C)n2)c1,< 0.1
20,CC(=O)Nc1ccc(/C=C2\CCc3ccccc3C2=O)cc1,1.2
21,COc1ccc(C(=O)NC(C)CCc2ccccc2)c(O)c1 (stereo unspecified),15.2
22,Cc1c(C(=O)N2CCCCC2)oc2ccccc12,32
23,Cc1ccc(NC(=O)C2CC(=O)N(C(C)C)C2)cc1Cl (stereo unspecified),> 44.2
24,COc1ccccc1CNC(=O)Cn1cc([N+](=O)[O-])ccc1=O,> 47.6
25,O=C(c1ccc(Cl)cc1Cl)N1CCSCC1,> 41.4

row,SMILES,solubility kinetic [µg/mL]
1,Cc1ccc2[nH]cc(CCNC(=O)c3ccc4c(c3)OCO4)c2c1,38.3
2,CCOC(=O)c1cnc2c(ccc3ccccc32)c1NCCN(C)C,36.3
3,CC(Cc1ccccc1)NC(=O)CC(c1ccccc1)c1ccccc1O (stereo unspecified),10.8
4,COc1ccccc1CN1CCNC(=O)C1CC(=O)O (stereo unspecified),> 41.7
5,CC(=O)c1c(C)[n+]([O-])c2ccc3c(non3O)c12,25.5
6,COCCCNC(=O)c1cc(C(=O)Cc2ccccc2)c[nH]1,> 45.1
7,CCOc1ccccc1CN1C(=O)NC2(CCCCCC2)C1=O,46.6
8,N#CCN1C(=O)C(=O)N(Cc2cccc(Cl)c2)C1=O,> 41.7
9,CCOc1c(Cl)cc(CNCc2ccncc2)cc1OC.Cl,46.1
10,CSc1nc(C)c(C(=O)C[n+]2ccc(C)cc2)cc1C#N.[Br-],50
11,Cc1ccc(C)c(NC(=O)CN(C)C(=O)COc2ccc3ccccc3c2)c1,3.1
12,CCCCNC(=S)N1CCn2cccc2C1c1ccc(F)cc1 (stereo unspecified),10.3
13,CSc1ncccc1C(=O)Nc1cc(Cl)ccc1N1CCOCC1,4.4
14,COc1ccc(CNC(=O)CSC(=S)N2CCCC2)cc1,16.2
15,Cl.OCCNc1nc(N2CCCCC2)nc2ccccc12,> 46.3
16,O=C(NCCCCc1ccccc1)c1ccc(F)cc1,1.4
17,O=C(NC1CCCCC1)Oc1ccccc1,18.3
18,Cc1cccc(N2N=C(C(=O)O)CCC2=O)c1,> 34.8
19,Cc1ccc(Cc2c(C)[nH]c(=S)[nH]c2=O)cc1,7.4
20,Cc1cc(NC(=O)Nc2ccccc2Cl)no1,36.2
21,CN1CCN(C(=S)NC(=O)c2ccc(Br)cc2)CC1,51
22,CC(=O)NCc1ccc(-c2csc(-c3cccs3)n2)cc1,4.8
23,COc1ccc(-n2c(C)c(C)c3c(NCCO)ncnc32)cc1,> 46.9
24,Cc1cc2oc(=O)cc(CN3CCC(C)CC3)c2cc1C,4.1
25,CCc1nc(=O)c(-c2ccccc2)c(C)n1-c1ccccc1,> 43.6

row,SMILES,solubility kinetic [µg/mL]
1,O=C(NCCc1ccccc1)C1CCC(=O)N1CCc1ccccc1 (stereo unspecified),46.2
2,CN1C(N)=NC(=O)/C1=C/c1ccc(F)cc1,> 32.9
3,O=C1CCC([N+](=O)[O-])C(c2cccc3ccccc23)N1 (stereo unspecified),> 40.5
4,CSc1nsc(SCC(=O)Nc2ccccc2F)n1,38
5,CC(C)(C)NCC(O)c1cc(O)cc(O)c1.O=S(=O)(O)O (stereo unspecified),> 41.1
6,Cc1ccc(CNc2c(C=O)c(=O)[nH]c3ccccc23)cc1,2.2
7,O=C(NC(=S)N1CCN(C/C=C/c2ccccc2)CC1)c1ccco1,> 53.3
8,N#Cc1c(N)c(C(=O)c2ccccc2)n2ccccc12,31.4
9,CC(NC(=O)c1cnc2ccccc2n1)c1ccccc1 (stereo unspecified),33.7
10,COc1ccc(-n2c(SCC(=O)N(C)C3CCS(=O)(=O)C3)nc3ccc(O)cc3c2=O)cc1OC (stereo unspecified),35.3
11,O=c1[nH]c(-[n+]2ccccc2)c(/C=N/N=C(\[O-])c2ccccc2)s1,> 48.7
12,CCc1ccccc1NS(=O)(=O)c1cccc2nsnc12,44.8
13,O=C(COc1ccccc1[N+](=O)[O-])Nc1cccnc1,17.3
14,Nc1cccc2cnccc12,1.4
15,CCc1ccc(N=C2NC(=O)CS2)cc1,32.3
16,NC(Cc1ccccc1)c1nc(-c2ccccc2)no1 (stereo unspecified),> 39.8
17,CC(=O)Nc1ccc(C(=O)OCC(=O)N2CC3(C)CC2CC(C)(C)C3)cc1 (stereo unspecified),15.6
18,CCCSC1=C(C#N)C(c2cccs2)CC(=O)N1 (stereo unspecified),33.7
19,CC(C)CN1C(=O)c2ccc(NC(=O)Cc3ccccc3)cc2C1=O,< 0.4
20,O=C(CCCc1ccccc1)NC12CC3CC(CC(C3)C1)C2,11
21,COc1ccc(CCNC(=O)C(C)SCC(=O)Nc2ccc(F)cc2)cc1 (stereo unspecified),> 58.6
22,CC(=O)Nc1ccc(OCCOc2ccc(NC(C)=O)cc2)cc1,2.2
23,CCC(=O)Nc1cc(C(=O)O)ccc1Sc1ccc(C)cc1,38.8
24,CCOC(=O)c1cc(NC(=O)Nc2cc(C)ccn2)c(C)nc1C,0.3
25,N#Cc1cc([N+](=O)[O-])ccc1NCCc1ccccn1,> 40.2

row,SMILES,solubility kinetic [µg/mL]
1,CCN(C(=O)/C=C/c1ccc(OC)cc1)C1CCCCC1,38.3
2,O=C(CCN1C(=O)C2CC=CCC2C1=O)OCC(=O)c1ccc(F)cc1 (stereo unspecified),> 53.9
3,O=C(CCCc1ccccc1)NCCCc1ccccc1,33
4,COc1ccc(C(=O)N2CC3(C)C4CCC3(C)C2(C#N)C4)cc1OC (stereo unspecified),45
5,COc1ccc(C(=O)NCC(=O)Nc2cccc(S(=O)(=O)N3CCCC3)c2)cc1,60.1
6,N#Cc1ccccc1NC(=O)CSc1ccc([N+](=O)[O-])cn1,0.7
7,O=C(Nc1cccc(-c2nc3ccccc3[nH]2)c1)c1ccccn1,6.2
8,CC(=O)C(C(c1ccccc1)c1c[nH]c2ccccc12)[N+](=O)[O-] (stereo unspecified),29.1
9,N#Cc1cnn2cc(CCN3CCOCC3)c(-c3ccc(F)cc3)nc12,> 52.7
10,Nc1cc(=O)[nH]c(SCc2cccc3ccccc23)n1,4
11,COc1ccccc1S(=O)(=O)c1c(C)cc(C)[nH]c1=O,> 44
12,CC1CCN(C(=O)CN2C(=O)C(=O)N(C)C2=O)c2ccccc2S1 (stereo unspecified),> 52.1
13,Nc1cc(S(=O)(=O)N2CCCCC2)ccc1Oc1ccccc1,10.8
14,COc1ccc(CCC(C)NCC(C)c2ccccc2)cc1 (stereo unspecified),> 44.6
15,Cc1sc2ncnc(SCC(=O)Nc3ccc(S(=O)(=O)N4CCOCC4)cc3)c2c1C,5.4
16,O=C(C(=O)N1CCN(c2ccccc2)CC1)c1c[nH]c2ccccc12,2
17,Cc1nc2ccc(NC(=O)CCC3CCCC3)cc2s1,8.9
18,O=S(=O)(c1ccc(Cl)cc1)N1CCCC1c1cccnc1 (stereo unspecified),> 48.4
19,Cc1ccc(O)c(CO)n1,> 20.9
20,CC(c1ccccc1)N1C(=O)OC(C)(C)C1(C)O (stereo unspecified),> 37.4
21,N#Cc1c(Cl)cccc1N1CCCC1,2
